Laboratory results as given in BindingDB's records for PubMed 39651809 (Pfizer Inc.).

Assay: Inhibition of SLP76 phosphorylation at Ser376 in human Jurkat cells incubated for 30 mins by HTRF assay

Question: With `CNCc1nc(N(C)C(C)C)cc2c1CN(c1cccc(-c3nnc4n3[C@@H](CF)CC4)n1)C2=O` [US11684616, Example 205] as the compound, how does the IC50 read?
Answer: 52 nM

Question: For `CNCc1cc(OC)cc2c1CN(c1cccc(-c3nncn3C(C)C)n1)C2=O`, which IC50 is on record?
Answer: 383 nM

Question: With `COc1ccc2c(c1CN)CN(c1cccc(-c3nncn3[C@@H](C)CC(F)(F)F)n1)C2=O` as the compound, how does the IC50 read?
Answer: 520 nM

Question: With `CC[C@@H](N)c1nc(N2CCC[C@H]2C)cc2c1CN(c1cccc(-c3nncn3CC)n1)C2=O` [US11684616, Example 140] as the compound, how does the IC50 read?
Answer: 53 nM

Question: With `CCCn1c(C)nnc1-c1cccc(N2Cc3c(cc(N(C)C(C)C)nc3CNC)C2=O)n1` [US11142525, Example 64] as the compound, how does the IC50 read?
Answer: 81 nM

Question: With `CNCc1nc(N(C)C)cc2c1CN(c1cccc(-c3nncn3C(C)C)n1)C2=O` [US11142525, Example 1] as the compound, how does the IC50 read?
Answer: 112 nM

Question: Which IC50 does the source give for `C[C@@H]1CCCN1c1cc2c(c([C@@H](C)N)n1)CN(c1cccc(-c3nnc4n3[C@@H](C)CC4)n1)C2=O` [US11684616, Example 24] here?
Answer: 53 nM

Question: Which IC50 does the source give for `CCC(C)n1cnnc1-c1cccc(NC(=O)c2cccc3c2OCC(N)C3)n1` (stereo not drawn) here?
Answer: 222 nM

Question: Which IC50 does the source give for `CC[C@H]1CCc2nnc(-c3cccc(N4Cc5c(cc(N(C)C(C)C)nc5CNC)C4=O)n3)n21` [US11684616, Example 201] here?
Answer: 37 nM

Question: With `CCCn1cnnc1-c1cccc(N2Cc3c(cc(N4CCC[C@H]4C)nc3CNC)C2=O)n1` [US11142525, Example 55] as the compound, how does the IC50 read?
Answer: 34 nM

Question: Which IC50 does the source give for `CNCc1nc(N(C)C)cc2c1CN(c1cccc(-c3nncn3[C@@H](C)CC(F)(F)F)n1)C2=O` [US11142525, Example 17] here?
Answer: 70 nM

Question: For `CCCn1cnnc1-c1cccc(N2Cc3c(cc(N(C)C)nc3CNC)C2=O)n1` [US11142525, Example 46], which IC50 is on record?
Answer: 121 nM

Question: Which IC50 does the source give for `CNCc1cc(OC)cc2c1CN(c1cccc(-c3nncn3[C@@H](C)CC(F)(F)F)n1)C2=O` here?
Answer: 115 nM

Question: With `CC[C@H](C)n1cnnc1-c1cccc(NC(=O)c2cccc3c2nc(CN)n3C)n1` as the compound, how does the IC50 read?
Answer: 139 nM

Question: For `CCCn1cnnc1-c1cccc(N2Cc3c(cc(N(C)C(C)C)nc3CNC)C2=O)n1` [US11142525, Example 63], which IC50 is on record?
Answer: 87 nM

Question: With `CC(C)n1cnnc1-c1cccc(NC(=O)c2cccc3c2OCC(N)C3)n1` (stereo not drawn) as the compound, how does the IC50 read?
Answer: 1080 nM

Question: Which IC50 does the source give for `CNCc1nc(N(C)C(C)C)cc2c1CN(c1cccc(-c3nnc4n3[C@@H](C)CC4)n1)C2=O` [US11684616, Example 210] here?
Answer: 47 nM

Question: For `CC(C)n1cnnc1-c1cccc(NC(=O)c2cccc3c2nc(CN)n3C)n1`, which IC50 is on record?
Answer: 1070 nM
